Test: Plasma profile of CBD after topical application in rats
Assay type: in vivo, Sprague Dawley Rats
Method: 12 Female Sprague Dawley Rats (150-200 g) were purchased from Charles River Laboratories (Wilmington, MA). Rats were allowed to acclimatise for one week prior to commencement of the study.
At day 0, rats were anaesthetised using 3% isoflurane via inhalation. The skin on the dorsal side of the rats was shaved and a circular area of approximately 18.09 cm^2 was marked onto the surface of the skin. Twice daily, cream was applied to the dorsal surface of the skin using a 1 ml syringe that was prefilled with the composition described in Example 1 at a dose of 15 mg/kg of cannabidiol (CBD). Following the application of the cream and in order to prevent the cream from being removed, dermal application jackets were applied to each of the rats. These were maintained on the animals for the duration of the study (i.e. 7 days). Every 24 hours, blood was collected by puncturing the saphenous vein with a 20 G needle. At each time point, approximately 200 μL of blood was collected into Microvette™ 200 ZGel collection tubes (Sarstedt). Blood samples were centrifuged at 1.5×104 RPM for 5 mins. Following this, plasma was isolated and stored at −80° C. until the end of the study when all samples were analysed simultaneously. […]
Plasma (20 μL) was added to a 1:1 (v/v) solution of acetonitrile:ethyl acetate at a ratio of 1:10 (plasma:organic solvent). […] The samples were reconstituted with LC-MS grade methanol prior to analysed by mass spectrometry.
LC analyses were performed on an Agilent 1260 LC infinity system consisting of a binary pump, a thermostated autosampler and a thermostated column compartment (Agilent, Waldbronn, Germany). Samples were analyzed on an Agilent Poroshell 120 C18 column (150×2.1 mm; 1.9 μm particle size) (Agilent, Waldbronn, Germany). […]
Tandem mass spectrometry was performed using a TSQ Endura™ Triple Quadrupole Mass Spectrometer (Thermo Fisher Scientific, Waltham, MA) operating in electrospray ionization (ESI). Xcalibur software (Thermo Fisher Scientific) was used for instrument control, data acquisition, qualitative and quantitative data analyses. […]

## C=C(C)[C@@H]1CCC(C)=C[C@H]1c1c(O)cc(CCCCC)cc1O [CBD, cannabidiol]
Topical composition of Example 1, 15 mg/kg CBD twice daily for 7 days, female rats
  Time of peak plasma concentration: 96 h
Topical composition of Example 1, 15 mg/kg CBD twice daily for 7 days, female rats, n=12
  Peak plasma concentration of CBD: 21.08 ± 3.54 ng/mL
Topical composition of Example 1, 15 mg/kg twice daily, LOQ of LC-MS method 5 ng/ml
  Plasma concentration of CBD by 168 h: below the LOQ
